From US20260297081A1, “COMPOUNDS AND METHODS OF TREATING CANCERS” (Cullgen Inc., priority 2023, published 2026)

Columns and labels:
Calu-1 cells = assay: Anti-proliferation (viability) of NSCLC Calu-1 cells, 3 days (Table 7, FIG. 2B); type: cell-based; settings: Homo sapiens, 72 h; Calu-1 cells, 3 days, 10-point serial dilution; read-out: GI IC50 in Calu-1
How it was run: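 Cells treated with heterobifunctional compounds in 10-point serial dilution, then viability measured; Calu-1 NSCLC cells exposed for 3 days, ER+ T47D breast cancer cells for 6 days.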

MCF7 cells = assay: Anti-proliferation (viability) of MCF7 cells (Table 7, FIG. 2B); type: cell-based; settings: Homo sapiens, MCF7, MCF7 cells, 3-6 days, 10-point serial dilution; read-out: GI IC50 in MCF-7

| IC50 (Calu-1 cells) | IC50 (MCF7 cells) | Compound |
| --- | --- | --- |
| ≥ 50 nM | > 100 nM | CCN1CCc2cc(-c3nc(Nc4ccc(CN5CCN(CC(=O)N6CC7(CC(Nc8nc(NC(C)C)ccc8C(=O)Nc8ccc(N(C)C)nn8)C7)C6)CC5)cn4)ncc3F)ccc2C1=O [CPD-553, N-(6-(dimethylamino)pyridazin-3-yl)-2-((2-(2-(4-((6-((4-(2-ethyl-1-oxo-1,2,3,4-tetrahydroisoquinolin-6-yl)-5-fluoropyrimidin-2-yl)amino)pyridin-3-yl)methyl)piperazin-1-yl)acetyl)-2-azaspiro[3.3]heptan-6-yl)amino)-6-(isopropylamino)nicotinamide] |
| ≤ 10 nM | > 100 nM | [2H]C([2H])([2H])Nc1ccc(C(=O)Nc2ccc(N(C)C)nn2)c(NC2CC3(C2)CN(C(=O)CCN2CCN(c4ccc(Nc5ncc6c(C)c(C(C)=O)c(=O)n(C7CCCC7)c6n5)nc4)CC2(C)C)C3)n1 [CPD-458, 2-((2-(3-(4-(6-((6-acetyl-8-cyclopentyl-5-methyl-7-oxo-7,8-dihydropyrido[2,3-d]pyrimidin-2-yl)amino)pyridin-3-yl)-2,2-dimethylpiperazin-1-yl)propanoyl)-2-azaspiro[3.3]heptan-6-yl)amino)-N-(6-(dimethylamino)pyridazin-3-yl)-6-((methyl-d3)amino)nicotinamide] |
| ≤ 10 nM | 50 to 100 nM | CC(=O)c1c(C)c2cnc(Nc3ccc(N4CCN(C5CCN(C(=O)C6(F)CCC(Nc7nc(NC(C)C)ccc7C(=O)Nc7ccc(N(C)C)nn7)CC6)C5)CC4)cn3)nc2n(C2CCCC2)c1=O (centres unmarked) [CPD-572, 2-((4-(3-(4-(6-((6-acetyl-8-cyclopentyl-5-methyl-7-oxo-7,8-dihydropyrido[2,3-d]pyrimidin-2-yl)amino)pyridin-3-yl)piperazin-1-yl)pyrrolidine-1-carbonyl)-4-fluorocyclohexyl)amino)-N-(6-(dimethylamino)pyridazin-3-yl)-6-(isopropylamino)nicotinamide] |
| ≤ 10 nM | > 100 nM | CC(=O)c1c(C)c2cnc(Nc3ccc(CN4CCN(CC(=O)NC5CC(Nc6nc(NC(C)C)ccc6C(=O)Nc6ccc(N(C)C)nn6)C5)CC4)cn3)nc2n(C2CCCC2)c1=O (centres unmarked) [CPD-475, 2-((3-(2-(4-((6-((6-acetyl-8-cyclopentyl-5-methyl-7-oxo-7,8-dihydropyrido[2,3-d]pyrimidin-2-yl)amino)pyridin-3-yl)methyl)piperazin-1-yl)acetamido)cyclobutyl)amino)-N-(6-(dimethylamino)pyridazin-3-yl)-6-(isopropylamino)nicotinamide] |
| ≥ 50 nM | > 100 nM | CC(=O)c1c(C)c2cnc(Nc3ccc(N4CCN(CC(=O)NC5CC(Nc6nc(NC(C)C)ccc6C(=O)Nc6cn(C)c(C7CC7)n6)C5)CC4)cn3)nc2n(C2CCCC2)c1=O (centres unmarked) [CPD-288, 2-((3-(2-(4-(6-((6-acetyl-8-cyclopentyl-5-methyl-7-oxo-7,8-dihydropyrido[2,3-d]pyrimidin-2-yl)amino)pyridin-3-yl)piperazin-1-yl)acetamido)cyclobutyl)amino)-N-(2-cyclopropyl-1-methyl-1H-imidazol-4-yl)-6-(isopropylamino)nicotinamide] |
| ≤ 10 nM | 50 to 100 nM | CC(=O)c1c(C)c2cnc(Nc3ccc(N4CCC(N(C)CC(=O)N5CCC(Nc6nc(NC(C)C)ccc6C(=O)Nc6cn(C)c(C7CC7)n6)CC5)CC4)cn3)nc2n(C2CCCC2)c1=O [CPD-466, 2-((1-(N-(1-(6-((6-acetyl-8-cyclopentyl-5-methyl-7-oxo-7,8-dihydropyrido[2,3-d]pyrimidin-2-yl)amino)pyridin-3-yl)piperidin-4-yl)-N-methylglycyl)piperidin-4-yl)amino)-N-(2-cyclopropyl-1-methyl-1H-imidazol-4-yl)-6-(isopropylamino)nicotinamide] |
| ≤ 10 nM | 50 to 100 nM | CC(=O)c1c(C)c2cnc(Nc3ccc(N4CCC(N5CCC(C(=O)NCC6CC(Nc7nc(NC(C)C)ccc7C(=O)Nc7ccc(N(C)C)nn7)C6)C5)CC4)cn3)nc2n(C2CCCC2)c1=O (centres unmarked) [CPD-461, 2-((3-((1-(1-(6-((6-acetyl-8-cyclopentyl-5-methyl-7-oxo-7,8-dihydropyrido[2,3-d]pyrimidin-2-yl)amino)pyridin-3-yl)piperidin-4-yl)pyrrolidine-3-carboxamido)methyl)cyclobutyl)amino)-N-(6-(dimethylamino)pyridazin-3-yl)-6-(isopropylamino)nicotinamide] |
| ≤ 10 nM | < 50 nM | CC(=O)c1c(C)c2cnc(Nc3ccc(N4CCC(N5CCC[C@H]5C(=O)NC5CC6(C5)CC(Nc5nc(NC(C)C)ccc5C(=O)Nc5ccc(N(C)C)nn5)C6)CC4)cn3)nc2n(C2CCCC2)c1=O (stereo partly drawn) [CPD-543, (S)-2-((6-(1-(1-(6-((6-acetyl-8-cyclopentyl-5-methyl-7-oxo-7,8-dihydropyrido[2,3-d]pyrimidin-2-yl)amino)pyridin-3-yl)piperidin-4-yl)pyrrolidine-2-carboxamido)spiro[3.3]heptan-2-yl)amino)-N-(6-(dimethylamino)pyridazin-3-yl)-6-(isopropylamino)nicotinamide] |
| ≤ 10 nM | < 50 nM | CC(=O)c1c(C)c2cnc(Nc3ccc(CN4CCN(CC(=O)N5CCC6(CCC(Nc7nc(NC(C)C)ccc7C(=O)Nc7cc(C)n(C)n7)C6)C5)CC4)cn3)nc2n(C2CCCC2)c1=O (centres unmarked) [CPD-547, 2-((2-(2-(4-((6-((6-acetyl-8-cyclopentyl-5-methyl-7-oxo-7,8-dihydropyrido[2,3-d]pyrimidin-2-yl)amino)pyridin-3-yl)methyl)piperazin-1-yl)acetyl)-2-azaspiro[4.4]nonan-7-yl)amino)-N-(1,5-dimethyl-1H-pyrazol-3-yl)-6-(isopropylamino)nicotinamide] |
| ≥ 50 nM | > 100 nM | CC(=O)c1c(C)c2cnc(Nc3ccc(N4CCN(C5CCN(C(=O)[C@H]6CC[C@H](Nc7nc(NC(C)C)ccc7-c7nc8cc(N(C)C)ccc8[nH]7)CC6)C5)CC4)cn3)nc2n(C2CCCC2)c1=O (relative stereo) [CPD-540, trans-6-acetyl-8-cyclopentyl-2-((5-(4-(1-(4-((3-(5-(dimethylamino)-1H-benzo[d]imidazol-2-yl)-6-(isopropylamino)pyridin-2-yl)amino)cyclohexane-1-carbonyl)pyrrolidin-3-yl)piperazin-1-yl)pyridin-2-yl)amino)-5-methylpyrido[2,3-d]pyrimidin-7(8H)-one] |
| ≤ 10 nM | > 100 nM | CC(=O)c1c(C)c2cnc(Nc3ccc(N4CCN(C5CCN(C(=O)N6CCC7(CCC(Nc8nc(NC(C)C)ccc8C(=O)Nc8ccc(N(C)C)nn8)C7)C6)C5)CC4)cn3)nc2n(C2CCCC2)c1=O (centres unmarked) [CPD-561, 2-((2-(3-(4-(6-((6-acetyl-8-cyclopentyl-5-methyl-7-oxo-7,8-dihydropyrido[2,3-d]pyrimidin-2-yl)amino)pyridin-3-yl)piperazin-1-yl)pyrrolidine-1-carbonyl)-2-azaspiro[4.4]nonan-7-yl)amino)-N-(6-(dimethylamino)pyridazin-3-yl)-6-(isopropylamino)nicotinamide] |
| ≤ 10 nM | < 50 nM | CC(=O)c1c(C)c2cnc(Nc3ccc(N4CCC(N(C)CC(=O)N5CCC(Nc6nc(NC(C)C)ccc6C(=O)Nc6cc(C)n(C)n6)CC5)CC4)cn3)nc2n(C2CCCC2)c1=O [CPD-465, 2-((1-(N-(1-(6-((6-acetyl-8-cyclopentyl-5-methyl-7-oxo-7,8-dihydropyrido[2,3-d]pyrimidin-2-yl)amino)pyridin-3-yl)piperidin-4-yl)-N-methylglycyl)piperidin-4-yl)amino)-N-(1,5-dimethyl-1H-pyrazol-3-yl)-6-(isopropylamino)nicotinamide] |
| ≤ 10 nM | < 50 nM | CC(=O)c1c(C)c2cnc(Nc3ccc(N4CCN(C5CCN(C(=O)C6CCC7(CC(Nc8nc(NC(C)C)ccc8C(=O)Nc8ccc(N(C)C)nn8)C7)C6)C5)CC4)cn3)nc2n(C2CCCC2)c1=O (centres unmarked) [CPD-556, 2-((6-(3-(4-(6-((6-acetyl-8-cyclopentyl-5-methyl-7-oxo-7,8-dihydropyrido[2,3-d]pyrimidin-2-yl)amino)pyridin-3-yl)piperazin-1-yl)pyrrolidine-1-carbonyl)spiro[3.4]octan-2-yl)amino)-N-(6-(dimethylamino)pyridazin-3-yl)-6-(isopropylamino)nicotinamide] |
| ≤ 10 nM | 50 to 100 nM | CC(=O)c1c(C)c2cnc(Nc3ccc(N4CCN(CC(=O)NC5CC(Nc6nc(NC(C)C)ccc6C(=O)Nc6ccc(N(C)C)nn6)C5)CC4)cn3)nc2n(C2CCCC2)c1=O (centres unmarked) [CPD-280, 2-((3-(2-(4-(6-((6-acetyl-8-cyclopentyl-5-methyl-7-oxo-7,8-dihydropyrido[2,3-d]pyrimidin-2-yl)amino)pyridin-3-yl)piperazin-1-yl)acetamido)cyclobutyl)amino)-N-(6-(dimethylamino)pyridazin-3-yl)-6-(isopropylamino)nicotinamide] |
| ≤ 10 nM | > 100 nM | CC(=O)c1c(C)c2cnc(Nc3ccc(N4CCC(N5CCC[C@H]5C(=O)NCC5CC(Nc6nc(NC(C)C)ccc6C(=O)Nc6ccc(N(C)C)nn6)C5)CC4)cn3)nc2n(C2CCCC2)c1=O (stereo partly drawn) [CPD-542, (S)-2-((3-((1-(1-(6-((6-acetyl-8-cyclopentyl-5-methyl-7-oxo-7,8-dihydropyrido[2,3-d]pyrimidin-2-yl)amino)pyridin-3-yl)piperidin-4-yl)pyrrolidine-2-carboxamido)methyl)cyclobutyl)amino)-N-(6-(dimethylamino)pyridazin-3-yl)-6-(isopropylamino)nicotinamide] |
| 10 to 50 nM | > 100 nM | CC(=O)c1c(C)c2cnc(Nc3ccc(N4CCN(C5CCN(C(=O)N6CC7(CCC(Nc8nc(NC(C)C)ccc8C(=O)Nc8ccc(N(C)C)nn8)C7)C6)C5)CC4)cn3)nc2n(C2CCCC2)c1=O (centres unmarked) [CPD-545, 2-((2-(3-(4-(6-((6-acetyl-8-cyclopentyl-5-methyl-7-oxo-7,8-dihydropyrido[2,3-d]pyrimidin-2-yl)amino)pyridin-3-yl)piperazin-1-yl)pyrrolidine-1-carbonyl)-2-azaspiro[3.4]octan-6-yl)amino)-N-(6-(dimethylamino)pyridazin-3-yl)-6-(isopropylamino)nicotinamide] |
